The source of these data is BindingDB's records for doi:10.7270/Q21V5CG8 (Burnham Center For Chemical Genomics, 2011).

In this experiment the target is T1, Cysteine protease ATG4B (Homo sapiens, UniProt Q9Y4P1).
T1 sequence (Q9Y4P1 whole entry): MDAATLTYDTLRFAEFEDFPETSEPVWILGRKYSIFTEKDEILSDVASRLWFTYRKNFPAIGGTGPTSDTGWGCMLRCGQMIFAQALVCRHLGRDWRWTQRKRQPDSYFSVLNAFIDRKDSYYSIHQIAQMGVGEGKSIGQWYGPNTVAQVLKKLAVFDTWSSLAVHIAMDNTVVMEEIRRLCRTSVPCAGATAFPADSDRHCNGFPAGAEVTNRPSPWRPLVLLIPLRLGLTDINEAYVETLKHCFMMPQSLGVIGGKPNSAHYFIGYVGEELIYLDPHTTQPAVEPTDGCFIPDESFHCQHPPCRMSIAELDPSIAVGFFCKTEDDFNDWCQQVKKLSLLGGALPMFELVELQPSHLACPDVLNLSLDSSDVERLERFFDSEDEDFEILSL
Description: ATG4B protease inhibitors, dose response, biochemical, fluorescence, set 2 (AID 588584).

A word on the IC50: it is the concentration that gives 50% inhibition.

Molecule `Cc1ccc(NC2=NC(=O)C(=Cc3c(C)[nH]c4ccccc34)S2)cc1` [5-[(2-methyl-1H-indol-3-yl)methylene]-2-[(4-methylphenyl)imino]-1,3-thiazolidin-4-one] came in with an IC50 of 30.6 µM.
Next, `Oc1ccc2ccccc2c1CN=Nc1nnc(-c2ncc[nH]2)c2ccccc12` [SMR000151639]: 5.4 µM; `CC1=CC(/C=N/n2c(COc3ccccc3)nc3ccccc3c2=O)C(=O)C([N+](=O)[O-])=C1` (stereo not drawn) [3-[[(E)-(3-methyl-5-nitro-6-oxocyclohexa-2,4-dien-1-ylidene)methyl]amino]-2-(phenoxymethyl)quinazolin-4-one]: 22.8 µM.
